Where no end group is shown, it is not given here.
How the values were obtained:
glioblastoma cells = settings: literature; read-out: IC-50 on glioblastoma cells; cited from earlier work
Neuroblastoma cells = settings: literature; read-out: IC-50 on neuroblastoma cells; cited from earlier work
AKT [1] = test: AKT activity in cultured neurons treated with PKA inhibitor or activator (AKT phosphorylation at Thr-308 and Ser-473); type: cell-based
Description: To evaluate the significance of the AKT-PKAc interaction, kinase inhibitors were employed. […] Thus, cultured neurons were treated with the selective PKA inhibitor, H-89, and the potent PKA activator, forskolin, and AKT activity was analyzed.

AKT [2] = target: AKT (Homo sapiens, UniProt P31749); test: in vitro AKT kinase assay with Ser-9 GSK-3 GST fusion protein substrate; PKAc peptide library screen; type: biochemical; settings: Ser-9 GSK-3 GST substrate
Chain of AKT (Homo sapiens, UniProt P31749) (P31749 whole entry, the tested form may be a part): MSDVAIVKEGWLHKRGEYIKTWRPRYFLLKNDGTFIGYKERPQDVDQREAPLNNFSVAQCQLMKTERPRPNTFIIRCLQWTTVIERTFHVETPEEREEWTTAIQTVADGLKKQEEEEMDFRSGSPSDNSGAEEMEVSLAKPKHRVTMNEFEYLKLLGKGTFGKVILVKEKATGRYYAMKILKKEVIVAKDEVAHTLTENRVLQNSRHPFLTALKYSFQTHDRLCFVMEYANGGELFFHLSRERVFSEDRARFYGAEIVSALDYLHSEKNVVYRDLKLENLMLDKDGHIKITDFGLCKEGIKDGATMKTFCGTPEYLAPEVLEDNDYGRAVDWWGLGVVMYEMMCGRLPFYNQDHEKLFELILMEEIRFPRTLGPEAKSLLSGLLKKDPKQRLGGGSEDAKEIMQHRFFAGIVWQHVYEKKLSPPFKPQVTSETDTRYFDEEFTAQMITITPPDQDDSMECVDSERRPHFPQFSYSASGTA

[3] = trypan blue staining, live and dead cell count; type: cell-based; settings: 12 to 72 hours
Excerpt: Therefore, in addition to capturing live images, cells were stained with trypan blue at different time intervals following treatment with ZaTa and counted by a light microscope using a hemocytometer.

AKT1 = AKT1 (Homo sapiens, UniProt P31749); test: AKT1 in vitro kinase assay, γ-32P incorporation into Ser-21 GSK-3β substrate peptide; type: biochemical
Chain of AKT1 (P31749 whole entry): as the sequence (P31749 whole entry, the tested form may be a part) above

inhibitory effect on catalytic activity of AKT (AKT [2]) | Compound | number of dead cells [3] | further results
– | Cn1nnc2c(C(N)=O)ncn2c1=O [Temodar] | – | IC50 (glioblastoma cells): 421 to 1020 µM; IC50 (Neuroblastoma cells): 602 µM
– | O=S(=O)(NCCNC/C=C/c1ccc(Br)cc1)c1cccc2cnccc12 [Peptide H-89, H-89] | – | activity of AKT (activation-dependent phosphorylation at Thr-308 and Ser-473) (AKT [1]): dose-dependent increase in the activity of AKT
significant inhibitory effects | G-V-L-I-Y-E-M-A-A-G-Y-P-P-F-F (GVLIYEMAAGYPPFF; MISC_FEATURE - Peptide_SEQ ID NO:70) [Peptide 63] | – | –
– | AKRVKGRTWTLCGTPER [ZaTa^Y17R] | a significant increase in the number of dead cells was observed | –
– | G-F-A-K-R-V-K-G-R-T-W-T-L (GFAKRVKGRTWTL; MISC_FEATURE - Peptide_SEQ ID NO:59) [Peptide 52] | – | inhibition of AKT1 catalytic activity (AKT1): not able to inhibit AKT1
significant inhibitory effects | D-Q-Q-G-Y-I-Q-V-T-D-F-G-F-A-K (DQQGYIQVTDFGFAK; MISC_FEATURE - Peptide_SEQ ID NO:56) [Peptide 49] | – | –
– | AKRVKGRTWDLCGTPEY [ZaTa^T10D] | a significant increase in the number of dead cells was not seen | –
significant inhibitory effects | W-A-L-G-V-L-I-Y-E-M-A-A-G-Y (WALGVLIYEMAAGY; MISC_FEATURE - Peptide_SEQ ID NO:69) [Peptide 62] | – | –
– | AKRVKGRTWTLCGRPEY [ZaTa^T14R] | a significant increase in the number of dead cells was observed | –
– | AKRVKGRDWTLCGTPEY [ZaTa^T8D] | a significant increase in the number of dead cells was not seen | –
significant inhibitory effects | Y-E-M-A-A-G-Y-P-P-F-F-A (YEMAAGYPPFFA; MISC_FEATURE - Peptide_SEQ ID NO:71) [Peptide 64] | – | –
